From patent publication US8420311B2, “Method to block the infection by flaviviruses, molecules and uses” (Centro de Ingenieria Genetica y Biotecnologia, priority 2006, dated 2013)
Bridges are numbered along the chain shown (N, C = ends). Where no end group is shown, it is not given here.

What was measured:
DV1 = assay type: cell-based, dengue virus; conditions: peptides 0.1 mg/ml; Vero cells
Procedure: (§1) FIG. 17. Inhibition of the infection of Vero cells with DV1 and DV2. (A) Six-well plates with a monolayer at approximately 90% confluence were incubated for 30 min. at 37° C. with dilutions of the peptides in MEM medium. A dilution of either DV1 strain West Pac 74 or DV2 strain S16803 was then added, calculated so as to obtain an average of 100 lytic plaques per well, and the plates were incubated for 30 min. at 37° C. with the virus/peptide mixture. After the incubation the cells were washed twice, received the addition of MEM medium supplemented with non-essential amino acids, 1% fetal calf serum, 1% CMC, and finally were incubated for 5 days at 37° C. under a CO2 atmosphere. (B) Inhibitory effect of the peptides at 100 μMol/L. NRpep: Non-related peptide. Data on the sequence of the peptides 3H5pept (SEQ ID. 27), pepDIII-1 (SEQ ID. 28), HIII2CL (SEQ ID. 5) and HIII3CL (SEQ ID. 7), as well as on the region they span on DIII from DV, can be obtained from FIG. 11. The calculation of the inhibition percentages is described in Materials and Methods. (C) Inhibition of DV2 infection by using varying peptide concentrations. The viral plaques were visualized by staining with Naphtol Blue Black. Cell control: Untreated cells. Virus control: Cells incubated with the virus, but without peptide.
(§2) DIII has one of the most variable regions of the exposed surface of protein E. In fact, one of the antigenic characteristics of this domain is that the antibodies obtained against this region are predominantly serotype-specific (Roehrig J T, Bolin R A, Kelly R G (1998) Monoclonal antibody mapping of the envelope glycoprotein of the dengue 2 virus, Jamaica Virology 246:317-28). However, during the inhibition assay with different DV serotypes, the peptides display a wide-spectrum inhibitory activity, efficiently inhibiting the infection of strains of the homologous, as well as of the heterologous serotypes (table 3). It is important to notice that at the assayed concentration (0.1 mg/ml) all the peptides in all the conditions, with the exception of peptide HIII4CL for DV3, produced higher than 50% inhibition levels.

DV2 = assay type: cell-based, dengue virus; conditions: peptides 0.1 mg/ml; Vero cells
Procedure: as §1, §2

DV3 = assay type: cell-based, dengue virus; conditions: peptides 0.1 mg/ml; Vero cells
From the text: as §2

DV4 = assay type: cell-based, dengue virus; conditions: peptides 0.1 mg/ml; Vero cells
From the text: as §2

A2MR receptor = experiment: Effect of peptides on the binding of fluoresceinated A2M and RAPR13 to Vero cells (flow cytometry); assay type: cell-based, monkey; conditions: increasing peptide concentrations (FIG. 19)
Procedure: FIG. 19. Effect produced on the binding of A2M and RAPR13 to the surface of Vero cells by simultaneous incubation with the peptides. The fluoresceinated A2M and RAP13 proteins were incubated for 30 min. at 4° C. with pre-fixed Vero cells in the presence of varying concentrations of HIII2CL and 3H5pept in order to reach the indicated molar peptide/protein ratios. The binding of the labeled ligands was detected by flow cytometry.
In order to obtain a direct evidence of the interaction with the A2MR receptor, the effect of one of the designed peptides on the binding of the natural ligands of A2MR to Vero cells was investigated. The assay was performed with fluoresceinated A2M and RAPR13, measuring their binding to Vero cells in the presence of increasing concentrations of the HDIII2CL peptide. The amount of protein bound to the cells was estimated by flow cytometry, using recombinant human EGF (rhEGF) as a negative control for the experiment, since it is known that Vero cells express the EGF receptor in their surface (Copp J, Wiley S, Ward M W, van der Geer P (2005) Hypertonic shock inhibits growth factor receptor signaling, induces caspase-3 activation, and causes reversible fragmentation of the mitochondrial network. Am J Physiol Cell Physiol. 288:C403-15).

mAb 3H5 = experiment: Recognition by mAb 3H5 in Western blotting / dot blotting; assay type: binding; conditions: signal lost upon reduction and carbamidomethylation
From the text: FIG. 12. (A) Sequence of the peptides designed to mimic different regions on the surface of DIII. The residue numbering corresponds to the sequence for protein E of DV serotype 2, strain Jamaica 1409, available from the Swiss-Prot databank with access number P07564. The underlined residues are not present in protein E and were introduced during design. The cysteine residues are used to restrict the structural mobility of the peptide by a disulphide bridge. (B) Recognition of the HDIII2Cs peptide by the neutralizing antibody 3H5 in a Western blotting assay. 50 μg of the BSA-peptide conjugates and 20 μg of the recombinant protein PD5 were electrophoresed on a 12.5% SDS-PAGE gel and transferred to a nitrocellulose membrane. After blocking, the membrane was incubated with a dilution (30 μg/mL) of the 3H5 mAb for 2 hours at 25° C. The bound antibody was detected with an anti-mouse IgG-peroxidase conjugate, and the blots were developed using chemiluminescence. (C) Two pieces of nitrocellulose membrane were sensitized in parallel with 10 μg of each variant of the protein and of the peptides. […]
With the aim of evaluating the recognition of peptide HDIII2Cs by mAb 3H5, peptide-BSA conjugates were prepared and analyzed by Western blotting with this antibody (FIG. 12B). […]

Row | Substance | degree of reduction of the number of viral plaques, DV1 (DV1) | degree of reduction of the number of viral plaques, DV2 (DV2) | degree of reduction of the number of viral plaques, DV3 (DV3) | degree of reduction of the number of viral plaques, DV4 (DV4) | amount of surface-bound RAPR13 (A2MR receptor) | recognition by mAb 3H5 (mAb 3H5)
1 | 3H5pept: peptide reported in the literature as part of the epitope recognized by mAb 3H5, SEQ ID. 27 (KAQLKLNWFKKGSS) [Peptide 3H5pept, reference compound] | − (Less than 10% decrease in the number of plaques) | − (Less than 10% decrease in the number of plaques) | − (Less than 10% decrease in the number of plaques) | − (Less than 10% decrease in the number of plaques) | does not produce variations | 
2 | HDIII2Cs: cyclic peptide corresponding to Ile379-Lys388 from protein E of DV2, Seq. ID. 4 (CIIGVEPGQLKC-NH2; disulfide 1-12) | − (Less than 10% decrease in the number of plaques) | − (Less than 10% decrease in the number of plaques) | − (Less than 10% decrease in the number of plaques) | − (Less than 10% decrease in the number of plaques) |  | recognized by mAb 3H5
